For assay [1], the system named is C. difficile clinical isolates. As to the kind of experiment: Checkerboard assay, summary over 9 tested strains. Format: cell-based, Clostridium difficile. As to the method:
Interactions between diiodohydroxyquinoline and the anticlostridial drugs (metronidazole and vancomycin) against Clostridium difficile clinical isolates. […] The fractional inhibitory concentration index (ΣFIC) was calculated for each interaction. Interactions where the ΣFIC index was ≤0.5 were categorized as synergistic (SYN).

Assay [2] concerns Bacteroides fragilis HM-711. Briefly: MIC against normal gut microflora, broth microdilution. The settings on record: HM711. Format: cell-based. As to the method: (§1) In vitro antimicrobial evaluation of diiodohydroxyquinoline against normal microflora. The broth microdilution assay was utilized to determine the MICs of DIHQ and control antibiotics against commensal organisms that compose he human gut microflora, as described elsewhere. A bacterial solution equivalent to 0.5 McFarland standard was prepared and diluted in BHIS broth (for Bifidobacterium and Bacteroides) or in MRS broth (for Lactobacillus) to achieve a bacterial concentration of about 5×10^5 CFU/mL. Then, drugs were added and serially diluted along the plates.
A general note: In broth dilution the organism is exposed to a series of concentrations in liquid medium.

In assay [3] the test system is Bifidobacterium longum HM-845. Described as above. It counts as cell-based. The settings on record: HM845. As to the method:
as §1

Assay [4] concerns Bacteroides fragilis HM-709. The description is as above. It counts as cell-based. The following applies: HM709. How it is done: as §1
For the next assay, the system named is Bacteroides dorei HM-717. The assay is described as above. The settings on record: Phocaeicola dorei, HM717. Format: cell-based. How it is done: as §1
The subject of assay [5] is Bacteroides fragilis HM-714. Described as above. Format: cell-based. The settings on record: HM714. How it is done: as §1
Another assay deals with Bacteroides dorei HM-718. Described as above. The following applies: Phocaeicola dorei, HM718. Format: cell-based. How it is done: as §1
Assay [6] deals with Lactobacillus reuteri HM-102. Described as above. Format: cell-based. How it is done:
as §1

Assay [7] concerns 2 clinical C. difficile strains. As to the kind of experiment: Initial screening of antiparasitic drugs, both strains. It counts as cell-based, Clostridium difficile. The following applies: Clostridioides difficile, both tested C. difficile strains, read-out: MIC (growth inhibitory concentration). How it is done: C. difficile strains were grown anaerobically on brain heart infusion supplemented (BHIS) agar plates at 37° C. for 48 hours. Afterwards, a bacterial solution equivalent to 0.5 McFarland standard was prepared and diluted in (BHIS) broth to achieve a bacterial concentration of about 5×10^5 CFU/mL. Drugs were added and serially diluted along the plates. Plates were then, incubated anaerobically at 37° C. for 48 hours. MICs reported in Table (1) are the minimum concentrations of the drugs that could completely suppress the visual growth of bacteria.

Assay [8] has as its system C. difficile ATCC BAA-1870. As to the kind of experiment: Initial screening of antiparasitic drugs, broth microdilution MIC. Format: cell-based, Clostridium difficile. The following applies: Clostridioides difficile.
For assay [9], the system named is species of Bacteroides and Bifidobacterium. Briefly: MIC against normal gut microflora. It counts as cell-based. The settings on record: species of Bacteroides and Bifidobacterium tested; for DIHQ except B. longum, B. adolescentis, B. angulatum; read-out: MIC (growth inhibitory concentration). As to the method: as §1
Another assay has as its system Bifidobacterium longum. Briefly: MIC against normal gut microflora. Format: cell-based. The following applies: both strains. As to the method:
as §1

Assay [10] has as its system Lactobacillus and Bacteroides strains. Briefly: MIC against normal gut microflora. Format: cell-based. The following applies: Phocaeicola dorei; Lactobacillus and Bacteroides strains tested, with the exception of B. dorei HM-719; read-out: MIC (growth inhibitory concentration). How it is done:
as §1

Another assay concerns Bifidobacterium strains. Briefly: MIC against normal gut microflora. The settings on record: Bifidobacterium strains tested. Format: cell-based. How it is done: as §1
Where [11] appears, read: Bacteroides fragilis HM-711, read-out: MIC.
Where [12] appears, read: Bifidobacterium longum HM-845, read-out: MIC.
Setting [13] is: Bacteroides fragilis HM-709, read-out: MIC.
[14] abbreviates: Bacteroides dorei HM-717, read-out: MIC.
Where [15] appears, read: Bacteroides fragilis HM-714, read-out: MIC.
The mark [16] stands for this setting: Bacteroides dorei HM-718, read-out: MIC.
[17] abbreviates: Limosilactobacillus reuteri, HM102, Lactobacillus reuteri HM-102, read-out: MIC.

The structures appear in SMILES notation. ≈ marks a conversion by molar mass, not a printed value. Where two headings read alike, the source gives them in different places.

`Oc1c(I)cc(I)c2cccnc12` [DIHQ, 5,7-diiodoquinolin-8-ol]: the “tested strains with a synergistic relationship” value in assay [1] (DIHQ combined with metronidazole) was 7 out of 9. Also, the “tested strains with a synergistic interaction” value in [1] (DIHQ combined with vancomycin) is 5 out of 9. Further, the MIC was greater than 128 µg/mL in assay [2] (setting [11]); 64 µg/mL (≈ 161 µM) in assay [3] (setting [12]); greater than 128 µg/mL in assay [4] (setting [13]); greater than 128 µg/mL with Bacteroides dorei HM-717 (setting [14]); greater than 128 µg/mL in assay [5] (setting [15]); greater than 128 µg/mL in the assay with Bacteroides dorei HM-718 (setting [16]). Further, the MIC in assay [6] (Lactobacillus reuteri HM-102) was greater than 128 µg/mL; in [6] (setting [17]) it was greater than 128 µg/mL; in assay [7], 0.5 to 1 µg/mL (≈ 1.26 to 2.52 µM); in [8] (initial screening, C. difficile ATCC BAA 1870, read-out: MIC), 1 µg/mL (≈ 2.52 µM); in assay [9] it was greater than 128 µg/mL; in the assay on Bifidobacterium longum, 64 to 128 µg/mL (≈ 161 to 322 µM).

Turning to `CCc1c(Cl)c(O)c(Cl)c(O)c1C(=O)O[C@H]1[C@H](O)[C@H](OC)[C@H](OC/C2=C\C=C\C[C@H](O)/C(C)=C/[C@H](CC)[C@@H](O[C@@H]3OC(C)(C)[C@@H](OC(=O)C(C)C)[C@H](O)[C@@H]3O)/C(C)=C/C(C)=C/C[C@@H]([C@@H](C)O)OC2=O)O[C@@H]1C` [Fidaxomicin, fidaxomicin], the MIC was greater than 128 µg/mL in [2] (setting [11]); no more than 1 µg/mL in assay [3] (setting [12]); greater than 128 µg/mL in assay [4] (setting [13]); greater than 128 µg/mL in the assay on Bacteroides dorei HM-717 (setting [14]); greater than 128 µg/mL in [5] (setting [15]); greater than 128 µg/mL in the assay with Bacteroides dorei HM-718 (setting [16]). The MIC in assay [6] (setting [17]) and in assay [10] was greater than 128 µg/mL in each case.

Consider `Cc1ncc([N+](=O)[O-])n1CCO` [Metronidazole, metronidazole], for which the MIC in assay [2] (setting [11]) was no more than 1 µg/mL; in assay [3] (setting [12]), no more than 1 µg/mL; in assay [4] (setting [13]), 2 µg/mL (≈ 11.7 µM); in the assay on Bacteroides dorei HM-717 (setting [14]), no more than 1 µg/mL; in assay [5] (setting [15]), no more than 1 µg/mL; with Bacteroides dorei HM-718 (setting [16]) it was no more than 1 µg/mL. The MIC in assay [6] (setting [17]) was greater than 128 µg/mL; in assay [9] it was no more than 2 µg/mL.

As for `CN[C@H](CC(C)C)C(=O)N[C@H]1C(=O)N[C@@H](CC(N)=O)C(=O)N[C@H]2C(=O)N[C@H]3C(=O)N[C@H](C(=O)N[C@H](C(=O)O)c4cc(O)cc(O)c4-c4cc3ccc4O)[C@H](O)c3ccc(c(Cl)c3)Oc3cc2cc(c3O[C@@H]2O[C@H](CO)[C@@H](O)[C@H](O)[C@H]2O[C@H]2C[C@](C)(N)[C@H](O)[C@H](C)O2)Oc2ccc(cc2Cl)[C@H]1O` [Vancomycin, vancomycin], the MIC in assay [2] (Bacteroides fragilis) was 128 µg/mL (≈ 88.3 µM); in assay [3] (Bifidobacterium longum) it was no more than 1 µg/mL; in [4] (Bacteroides fragilis) it was 64 µg/mL (≈ 44.2 µM); with Bacteroides dorei HM-717, 128 µg/mL (≈ 88.3 µM); in assay [5] (Bacteroides fragilis), 128 µg/mL (≈ 88.3 µM); against Bacteroides dorei HM-718 it was 128 µg/mL (≈ 88.3 µM). Further, the MIC is greater than 128 µg/mL in [6] (Limosilactobacillus reuteri, HM102); 1 µg/mL (≈ 0.69 µM) in [8]; no more than 1 µg/mL with Bifidobacterium strains.

The record behind these values is US11806342B2, “Diiodohydroxyquinoline for the treatment of clostridium difficile infection” (Purdue Research Foundation, priority 2019, dated 2023).
